We go through 2 compounds from patent US5326907A, “2-aminoethanesulfonic acid derivatives of 3,5-disubstituted-4-hydroxyphenolic thioethers” (G. D. Searle & Co., priority 1992, dated 1994).

Structures can show the parent of a compound that is named as a salt.

One experiment concerns the target T1, 5-lipoxygenase (Rattus norvegicus, UniProt P12527).
T1 construct: supernatant fraction of Rat Basophilic Leukemia Cell Homogenate (RBL-1) serves as a 5-lipoxygenase enzyme source; endogenous in cells; host or cells: RBL-1 (rat basophilic leukemia) cells, 100,000×g supernatant of homogenate
T1 sequence (P12527 1-673): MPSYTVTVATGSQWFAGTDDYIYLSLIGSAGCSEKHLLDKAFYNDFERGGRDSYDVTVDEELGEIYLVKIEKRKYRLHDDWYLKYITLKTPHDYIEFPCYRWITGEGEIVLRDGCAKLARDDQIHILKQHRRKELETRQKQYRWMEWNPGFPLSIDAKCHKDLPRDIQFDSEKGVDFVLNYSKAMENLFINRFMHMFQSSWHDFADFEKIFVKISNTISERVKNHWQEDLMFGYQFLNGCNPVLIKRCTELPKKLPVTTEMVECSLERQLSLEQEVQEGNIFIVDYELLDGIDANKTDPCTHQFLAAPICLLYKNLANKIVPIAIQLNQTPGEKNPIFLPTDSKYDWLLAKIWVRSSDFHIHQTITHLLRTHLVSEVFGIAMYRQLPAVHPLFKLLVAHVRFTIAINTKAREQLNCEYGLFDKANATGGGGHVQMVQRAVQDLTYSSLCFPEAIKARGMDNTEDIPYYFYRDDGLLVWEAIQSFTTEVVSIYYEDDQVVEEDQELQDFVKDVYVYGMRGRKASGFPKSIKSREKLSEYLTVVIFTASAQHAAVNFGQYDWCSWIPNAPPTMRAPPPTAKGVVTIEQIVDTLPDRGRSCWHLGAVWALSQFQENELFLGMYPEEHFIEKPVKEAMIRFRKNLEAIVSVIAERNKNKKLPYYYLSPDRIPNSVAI
The experiment is described as follows: Inhibition of 5-lipoxygenase, in vitro. The note with it: 100,000×g supernatant of RBL-1 homogenate, [1-14C]-arachidonic acid and Ca++; average; read-out: average IC50, inhibition of 5-lipoxygenase (5-HETE synthesis). It is filed as biochemical. The protocol: The compounds of the invention are evaluated with respect to 5-lipoxygenaseinhibition according to the following assay procedure.
The 100,000×g supernatant fraction of Rat Basophilic Leukemia Cell Homogenate (RBL-1) serves as a 5-lipoxygenase enzyme source. The enzyme is incubated with [1-^14 C)-arachidonic acid and Ca++ in the presence and absence of test compound. The product of 5-lipoxygenase, 5-hydroxyeicosa-tetraenoic acid (5-HETE), is separated by thin-layer chromatography and measured by radioactivity. A compound inhibiting 5-HETE synthesis by 30% or more is considered active at that concentration.

For experiment [1], the system named is superoxide generation by FMLP-stimulated human neutrophils. Briefly: Human neutrophil superoxide generation (FMLP-stimulated, cytochrome C reduction). It is filed as cell-based. The note with it: pH 7.2, 37° C., preincubated 3 minutes, average, read-out: average IC50, inhibition of superoxide generation. The protocol:
The compounds of the invention are evaluated with respect to superoxide modulating activity according to the following assay procedure:
Superoxide generation by formyl-methionyl-leucyl-phenylalanine (FMLP)-stimulated neutrophils was quantitated by the reduction of cytochrome C (Badwey, J. A., Curnutte, J. T. and Karnovsky, M. L., cis-Polyunsaturated fatty acids induce high levels of superoxide production by human neutrophils. J. Biol. Chem. 256:12640-12643, 1981.) To 5 million neutrophils in 2.85 ml of Krebs-Ringer phosphate buffer, pH 7.2, 50 ul of inhibitor (in 10% DMSO/buffer), and 50 ul ferricytochrome C (5 mM, stock) were added and preincubated for 3 minutes at 37° C. Absorption measurements at 550 nm were recorded at start of preincubation. Fifty ul FMLP (6 uM, stock) was added to initiate reaction. A plateau was reached within 3 minutes and this reading minus the initial reading (before addition of FMLP) was used to calculate nanomoles of superoxide generated based on a molar extinction coefficient of 2.1×10^4 cm^-1 mole^-1.
Human neutrophils were isolated from freshly drawn blood of healthy donors. Two ml of 5% dextran (MW 200,000-300,000) in saline was added to 10 ml aliquots of blood, mixed and placed upright for 45 min. at 37° C. Approx. […] The red cell lysing procedure was repeated, the cells suspended in appropriate buffer (depending on assay) and counted.

For experiment [2] the following is noted: compared with histamine; background information; cited from earlier work.

In the case of `C[C@H](Sc1cc(C(C)(C)C)c(O)c(C(C)(C)C)c1)[C@@H](C)OCC(=O)NCCS(=O)(=O)O` (relative stereo) [Example 5, 2-[[[2S*-[[3,5-bis(1,1-dimethylethyl)-4-hydroxyphenyl]thio]-1R*-methylpropoxy]acetyl]amino]ethanesulfonic acid, potassium salt], the IC50 was 3.25 µM on 5-lipoxygenase and 87.5 µM in experiment [1].

`CCCCC/C=C\C\C=C/C=C/C=C/[C@@H](SC[C@H](NC(=O)CC[C@H](N)C(=O)O)C(=O)NCC(=O)O)[C@@H](O)CCCC(=O)O` [LTC4]: in experiment [2], the “potency in causing long lasting bronchoconstricting effects relative to histamine” value was “at least 100 times”.
